Reference: the supplement of paper PMC13207355
Where a name gives a salt, the structure may show the parent alone.

How the values were obtained:
Details in all cases: exposure time: 72 h
E13 [1] = patient-derived glioblastoma stem cells of classical subtype; experiment: surviving fraction (nuclei count normalised to DMSO); higher = more cells surviving (less toxic)
E21 [2] = patient-derived glioblastoma stem cells of mesenchymal subtype; experiment: as above
E28 [3] = patient-derived glioblastoma stem cells of classical subtype; experiment: as above
E31 [4] = patient-derived glioblastoma stem cells of proneural subtype; experiment: as above
E34 [5] = patient-derived glioblastoma stem cells of proneural subtype; experiment: as above
E57 [6] = patient-derived glioblastoma stem cells of mesenchymal subtype; experiment: as above
FT3469 [7] = normal neural stem cell line; experiment: as above
E13 [8] = experiment: phenotypic distance (Euclidean, principal components) from DMSO controls (arbitrary units); higher = stronger morphological change
E21 [9] = experiment: as above
E28 [10] = experiment: as above
E31 [11] = experiment: as above
E34 [12] = experiment: as above
E57 [13] = experiment: as above
FT3469 [14] = experiment: as above
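Throughout, for phenotypic distance (Euclidean, principal components) from DMSO controls: cell Painting imaging in 384-well plates, CellProfiler features reduced to at least 20 principal components, Euclidean distance versus same-plate DMSO vehicle wells (0.1% v/v), median over six images per well.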
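Throughout, for surviving fraction (nuclei count normalised to DMSO): nuclei counted by high-content imaging of Hoechst-stained cells in laminin-coated 384-well plates, relative to 0.1% DMSO vehicle wells, with staurosporine as cell-death control.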

COc1cccc2c1C(=O)c1c(O)c3c(c(O)c1C2=O)C[C@@](O)(C(C)=O)C[C@@H]3O[C@H]1C[C@H](N)[C@H](O)[C@H](C)O1 [Daunorubicin hydrochloride]
Details | phenotypic distance | surviving fraction
E13 [1], 4.1 nM | – | 0.54
E13 [1], 12.3 nM | – | 0.512
E13 [1], 37 nM | – | 0.342
E13 [1], 111.1 nM | – | 0.381
E13 [1], 333.3 nM | – | 0.216
E13 [1], 1000 nM | – | 0.0373
E13 [1], 3000 nM | – | 0.0142
E13 [8], 4.1 nM | 3.33 | –
E13 [8], 12.3 nM | 4.36 | –
E13 [8], 37 nM | 6.02 | –
E13 [8], 111.1 nM | 5.64 | –
E13 [8], 333.3 nM | 5.87 | –
E13 [8], 1000 nM | 7.81 | –
E13 [8], 3000 nM | 5.88 | –
E21 [2], 4.1 nM | – | 0.844
E21 [2], 12.3 nM | – | 0.597
E21 [2], 37 nM | – | 0.451
E21 [2], 111.1 nM | – | 0.343
E21 [2], 333.3 nM | – | 0.151
E21 [2], 1000 nM | – | 0.0632
E21 [2], 3000 nM | – | 0.055
E21 [9], 4.1 nM | 1.95 | –
E21 [9], 12.3 nM | 4.33 | –
E21 [9], 37 nM | 6.78 | –
E21 [9], 111.1 nM | 5.96 | –
E21 [9], 333.3 nM | 5.7 | –
E21 [9], 1000 nM | 6.37 | –
E21 [9], 3000 nM | 6.06 | –
E28 [3], 4.1 nM | – | 0.408
E28 [3], 12.3 nM | – | 0.419
E28 [3], 37 nM | – | 0.339
E28 [3], 111.1 nM | – | 0.251
E28 [3], 333.3 nM | – | 0.185
E28 [3], 1000 nM | – | 0.187
E28 [3], 3000 nM | – | 0.11
E28 [10], 4.1 nM | 1.76 | –
E28 [10], 12.3 nM | 2.56 | –
E28 [10], 37 nM | 2.56 | –
E28 [10], 111.1 nM | 3.09 | –
E28 [10], 333.3 nM | 3.78 | –
E28 [10], 1000 nM | 3.13 | –
E28 [10], 3000 nM | 5.54 | –
E31 [4], 4.1 nM | – | 0.51
E31 [4], 12.3 nM | – | 0.293
E31 [4], 37 nM | – | 0.266
E31 [4], 111.1 nM | – | 0.134
E31 [4], 333.3 nM | – | 0.0818
E31 [4], 1000 nM | – | 0.0315
E31 [4], 3000 nM | – | 0.0944
E31 [11], 4.1 nM | 2.77 | –
E31 [11], 12.3 nM | 2.46 | –
E31 [11], 37 nM | 2.46 | –
E31 [11], 111.1 nM | 4.45 | –
E31 [11], 333.3 nM | 4.56 | –
E31 [11], 1000 nM | 7.33 | –
E31 [11], 3000 nM | 5.46 | –
E34 [5], 4.1 nM | – | 0.644
E34 [5], 12.3 nM | – | 0.611
E34 [5], 37 nM | – | 0.591
E34 [5], 111.1 nM | – | 0.445
E34 [5], 333.3 nM | – | 0.471
E34 [5], 1000 nM | – | 0.259
E34 [5], 3000 nM | – | 0.0925
E34 [12], 4.1 nM | 1.67 | –
E34 [12], 12.3 nM | 4.29 | –
E34 [12], 37 nM | 4.68 | –
E34 [12], 111.1 nM | 3.18 | –
E34 [12], 333.3 nM | 2.84 | –
E34 [12], 1000 nM | 4.23 | –
E34 [12], 3000 nM | 3.57 | –
E57 [6], 4.1 nM | – | 0.583
E57 [6], 12.3 nM | – | 0.325
E57 [6], 37 nM | – | 0.194
E57 [6], 111.1 nM | – | 0.178
E57 [6], 333.3 nM | – | 0.149
E57 [6], 1000 nM | – | 0.0932
E57 [6], 3000 nM | – | 0.0598
E57 [13], 4.1 nM | 3.27 | –
E57 [13], 12.3 nM | 6.2 | –
E57 [13], 37 nM | 9.2 | –
E57 [13], 111.1 nM | 7.86 | –
E57 [13], 333.3 nM | 6.42 | –
E57 [13], 1000 nM | 6.83 | –
E57 [13], 3000 nM | 7.19 | –
FT3469 [7], 4.1 nM | – | 0.644
FT3469 [7], 12.3 nM | – | 0.625
FT3469 [7], 37 nM | – | 0.487
FT3469 [7], 111.1 nM | – | 0.606
FT3469 [7], 333.3 nM | – | 0.593
FT3469 [7], 1000 nM | – | 0.0798
FT3469 [7], 3000 nM | – | 0.0266
FT3469 [14], 4.1 nM | 1.72 | –
FT3469 [14], 12.3 nM | 1.77 | –
FT3469 [14], 37 nM | 2.11 | –
FT3469 [14], 111.1 nM | 2.17 | –
FT3469 [14], 333.3 nM | 2.57 | –
FT3469 [14], 1000 nM | 4.08 | –
FT3469 [14], 3000 nM | 7.48 | –
